Data reported in patent US20190030036A1, “PHOSPHODIESTERASE INHIBITOR TREATMENT” (Cyrano Therapeutics, Inc., priority 2013, published 2019).

Assays:
patients with hyposmia = assay: Subjective overall change in smell function; open trial of oral theophylline; type: in vivo, human; conditions: cilostazol added to 600 mg or 800 mg of theophylline in patients who improved <5%
Protocol: Independently, patients were also required to grade their ability to smell daily on a scale from 0-100, with 0 reflecting no overall smell function over a 24 hour period, 100 reflecting normal overall smell function over this period and numbers from 0-100 reflecting their estimation of their overall ability to smell odors over this period.
After determination of hyposmia, patients were treated in an open label, fixed design, controlled open trial. Patients were given an oral extended release theophylline in divided daily doses taken in the middle of breakfast and lunch. All patients were initially given 200 mg of theophylline; changes in this dose were made based upon subjective responses to therapy. If at a subsequent return visit, patients reported ≥5% subjective improvement in overall smell function, they continued on this same dose of theophylline and were reevaluated after four to six months of continued treatment. Results from any subsequent return from these improved patients were not included in any subsequent data report. All subsequent comparisons between treated and untreated patients were made only between those patients continuing in the study compared to their own measurements obtained in the untreated state. If patients reported <5% subjective improvement, their theophylline dose was increased by 200 mg daily and they were scheduled for retesting at the study site after two to four months at this new dosage. For patients that reported <5% improvement, this sequence continued until patients reached 800 mg of theophylline, at which time the study was considered completed.
Patients returned for reevaluation after two to four months of treatment. Measurements of blood serum theophylline were measured by a fluorescence polarization assay (Abbott, Chicago, Ill.). At this time, subjective changes in smell function were measured independently (compared to patient's memory of previous normal smell function monitored by use of the patients' daily measurements) using the scale from −100−0-+100 previously described. After independently recording their subjective responses, smell function was measured for all four odors with DT, RT, ME and H determined without recourse to prior measurements.
Subjective overall changes in smell acuity were reported by telephone and by FAX or email at two—four month intervals after treatment was initiated using the standardized form in which they measured daily changes in smell acuity using the −100−0-+100 scale as noted above. Using the same criteria noted above, if at their initial two—four month call-in they reported improvement in smell acuity of ≥5%, they continued at 200 mg and returned to the study site at four—six months on this treatment dose. If they reported improvement in smell acuity of <5% their dose of theophylline was increased to 400 mg for an additional two—four months and they then called the study site at the end of this period.

[1] = tested on: subjects with a taste and/or smell disorder; assay: Taste and/or smell function after intranasal dosage units in a plume from a multi-dose nasal spray device (Examples 10-15); type: in vivo, human; conditions: once per day in each naris
Source text: The improvements in taste and/or smell function are evidenced by a decrease in the detection threshold for at least one odorant and/or tastant, a decrease in the recognition threshold for at least one odorant and/or tastant, and/or an increase in a magnitude estimation for at least one odorant and/or tastant.

asthmatic patients = assay: sGaw after inhaled dry powder in asthmatic patients (Examples 5, 6)
Protocol: (§1) To test this theory, asthmatic patients are enrolled in a dose escalating single blind study. On arrival to the clinic, subjects are allowed to rest for 20 minutes before baseline measurements of FEV1 (six recordings) and sGaw (five recordings) are made. Subjects receive a dry powder dispenser loaded with a dose of 2 mg theophylline or a dry powder carrier. […] After each inhalation, measurements of sGaw are made at 1, 3, 5, 10, 15, 20, 25, and 30 minutes.
On completion of the last recording, subjects inhale a 200 μg dose of salbutamol from a metered inhaler and a further measurement of sGaw is made after 15 minutes. Subjects are also monitored for coughing and are questioned about the taste of the drug.
as §1, with “Asthmatic patients” for “To test this theory, asthmatic patients”, “of 1” for “of 2”, “mg IBMX formulated as a dry powder” for “mg theophylline”
On completion of the last recording, subjects inhale a 200 μg dose of salbutamol from a metered inhaler and a further measurement of sGaw made after 15 minutes. Subjects are also be monitored for coughing and are questioned about the taste of the drug.

PDE = conditions: non-specific PDE inhibitor; cited from earlier work

## O=C1CCc2cc(OCCCCc3nnnn3C3CCCCC3)ccc2N1 [cilostazol]
Patients with hyposmia
  additional patients with improved smell function: 15%
[1]
  taste and/or smell function: improvement in taste and/or smell function

## COc1ccc(Cc2nccc3cc(OC)c(OC)cc23)cc1OC [papaverine]
[1]
  taste and/or smell function: improvement in taste and/or smell function

## CC(C)Cn1c(=O)n(C)c(=O)c2[nH]cnc21 [IBMX, 3-isobutyl-1-methylxanthine]
Asthmatic patients; after 30 minutes, inhaled dry powder 1 mg IBMX
  sGaw above the baseline measurement: 20%
Asthmatic patients; human, in vivo
  taste and coughing: without the unpleasant taste or the induction of coughing
Asthmatic patients; inhaled dry powder 1 mg IBMX
  increase in sGaw relative to 200 μg inhaled salbutamol: comparable
  time until sGaw baseline is reached: one and a half
PDE
  IC50: 2 to 50 µM

## O=C(Nc1c(Cl)cncc1Cl)c1ccc(OC(F)F)c(OCC2CC2)c1 [roflumilast]
[1]
  taste and/or smell function: improvement in taste and/or smell function
